# US20090133318A1, “Anthranilamide insecticides” (priority 2004, published 2009)
# Legend:
# Format in all cases: in vivo
# [1] = tested on: diamondback moth (Plutella xylostella); experiment: Test A: control of diamondback moth, foliar spray on radish plant
# From the text: For evaluating control of diamondback moth (Plutella xylostella) the test unit consisted of a small open container with a 12-14-day-old radish plant inside. This was pre-infested with 10-15 neonate larvae on a piece of insect diet by use of a core sampler to remove a plug from a sheet of hardened insect diet having many larvae growing on it and transfer the plug containing larvae and diet to the test unit. The larvae moved onto the test plant as the diet plug dried out.
# Test compounds or mixtures were formulated using a solution containing 10% acetone, 90% water and 300 ppm X-77™ Spreader Lo-Foam Formula non-ionic surfactant containing alkylarylpolyoxyethylene, free fatty acids, glycols and 2-propanol (Loveland Industries, Inc. Greeley, Colo., USA). The formulated compounds or mixtures were applied in 1 mL of liquid through a SUJ2 atomizer nozzle with ⅛ JJ custom body (Spraying Systems Co. Wheaton, Ill., USA) positioned 1.27 cm (0.5 inches) above the top of each test unit. […] For experimental mixtures in these tests, to obtain the desired mixture concentrations of each compound, twice the desired concentration of each of the two mixture partner compounds were mixed together in equal volumes.
# After spraying of the formulated test compound or mixture, each test unit was allowed to dry for 1 hour and then a black, screened cap was placed on top. The test units were held for 6 days in a growth chamber at 25° C. and 70% relative humidity. Plant feeding damage was then visually assessed based on foliage consumed.
# [2] = tested on: green peach aphid (Myzus persicae); experiment: Test C: control of green peach aphid through contact and/or systemic means, radish plant
# Experimental: (§1) Test compounds or mixtures were formulated using a solution containing 10% acetone, 90% water and 300 ppm X-77™ Spreader Lo-Foam Formula non-ionic surfactant containing alkylarylpolyoxyethylene, free fatty acids, glycols and 2-propanol (Loveland Industries, Inc. Greeley, Colo., USA). The formulated compounds or mixtures were applied in 1 mL of liquid through a SUJ2 atomizer nozzle with ⅛ JJ custom body (Spraying Systems Co. Wheaton, Ill., USA) positioned 1.27 cm (0.5 inches) above the top of each test unit. All experimental compounds in these tests were sprayed at 10 ppm replicated three times. For experimental mixtures in these tests, to obtain the desired mixture concentrations of each compound, twice the desired concentration of each of the two mixture partner compounds were mixed together in equal volumes.
# For evaluating control of green peach aphid (Myzus persicae) through contact and/or systemic means, the test unit consisted of a small open container with a 12- to 15-day-old radish plant inside. This was pre-infested by placing on a leaf of the test plant 30-40 aphids on a piece of leaf excised from a culture plant (cut-leaf method). The larvae moved onto the test plant as the leaf piece desiccated. After pre-infestation, the soil of the test unit was covered with a layer of sand.
# All test compounds were formulated and sprayed at 50 ppm as described for Test A and replicated three times. Test mixtures were formulated as described for Test A and replicated three times. After spraying of the formulated test compound or mixture, each test unit was allowed to dry for 1 hour and then a black, screened cap was placed on top. The test units were held for 6 days in a growth chamber at 19-21° C. and 50-70% relative humidity. Dead and total number of aphids were counted in each test unit to determine percent mortality.
# [3] = tested on: corn planthopper (Peregrinus maidis); experiment: Test F: control of corn planthopper through contact and/or systemic means, corn plant (mixtures)
# Experimental: as §1
# For evaluating control of corn planthopper (Peregrinus maidis) through contact and/or systemic means, each test unit consisted of a small open cylindrical container with a 3- to 4 day-old corn (maize) plant (spike) inside. White sand was added to the top of the soil prior to application. Test mixtures were formulated and sprayed with 3 replications as described for Test A. After spraying, the test units were allowed to dry for 1 hour before they were post-infested with 10 to 20 corn planthoppers (18- to 20-day-old nymphs) by sprinkling them onto the sand with a salt shaker. A black, screened cap was placed on the top of each container. The test units were held for 6 days in a growth chamber at 19-21° C. and 50-70% relative humidity. Dead and total number of corn planthoppers were counted in each test unit to determine percent mortality.
# [4] = tested on: western flower thrips (Frankliniella occidentalis Pergande); experiment: Test G: control of western flower thrips through contact and/or systemic means, bean plant (mixtures)
# Experimental: as §1
# For evaluating control of the western flower thrips (Frankliniella occidentalis Pergande) through contact and/or systemic means, each test unit consisted of a small open container with a 5- to 7-day-old bean (var. Soleil) plant inside.
# Test mixtures were formulated and sprayed with 3 replications as described for Test A. After spraying, the test units were allowed to dry for 1 hour, 22 to 27 adult thrips were added to each unit and then a black, screened cap was placed on top. The test units were held for 7 days at 25° C. and 45-55% relative humidity. The amount of plant damage for each test unit was rated to determine the percent plant protection.
compound,measurement,setting,value
Cc1cc(Cl)cc(C(=O)NCC2CC2)c1NC(=O)c1cc(Br)nn1-c1ncccc1Cl [Compound 2],% protection (obs),[1]; 0.03 ppm,37%
same,% protection (obs),[1]; 0.04 ppm,77%
same,% protection (obs),[1]; 0.06 ppm,93%
same,Mortality (obs),[2]; 8 ppm,4%
same,Mortality (obs),[2]; 50 ppm,17%
same,Mortality (obs),[2]; 250 ppm,76%
same,Mortality (obs),[3]; 30 ppm,2%
same,Mortality (obs),[3]; 100 ppm,10%
same,Mortality (obs),[3]; 250 ppm,31%
same,% protection (obs),[4]; 5 ppm,20%
same,% protection (obs),[4]; 150 ppm,27%
same,% protection (obs),[4]; 250 ppm,53%
Imidacloprid,% protection (obs),[1]; 0.8 ppm,73%
same,% protection (obs),[1]; 17 ppm,80%
same,% protection (obs),[1]; 50 ppm,90%
same,Mortality (obs),[2]; 0.08 ppm,5%
same,Mortality (obs),[2]; 0.15 ppm,44%
same,Mortality (obs),[2]; 0.3 ppm,50%
same,Mortality (obs),[3]; 0.08 ppm,2%
same,Mortality (obs),[3]; 0.2 ppm,10%
same,Mortality (obs),[3]; 0.8 ppm,71%
same,% protection (obs),[4]; 11 ppm,27%
same,% protection (obs),[4]; 77 ppm,40%
same,% protection (obs),[4]; 250 ppm,90%
Thiamethoxam,% protection (obs),[1]; 30 ppm,43%
same,% protection (obs),[1]; 40 ppm,73%
same,% protection (obs),[1]; 50 ppm,90%
same,Mortality (obs),[2]; 0.2 ppm,44%
same,Mortality (obs),[2]; 0.4 ppm,73%
same,Mortality (obs),[2]; 0.6 ppm,87%
same,Mortality (obs),[3]; 0.2 ppm,19%
same,Mortality (obs),[3]; 0.4 ppm,73%
same,Mortality (obs),[3]; 0.6 ppm,100%
same,% protection (obs),[4]; 5 ppm,0%
same,% protection (obs),[4]; 70 ppm,77%
same,% protection (obs),[4]; 250 ppm,100%
